This assay addresses T1, PkPSD proenzyme; MBP-His6-Δ34PkPSD(S308A) (Plasmodium knowlesi, UniProt B3L2V1, S308A).
T1 construct: gene PKH_072580
Briefly: biochemical.

The text below walks through data of paper PMC10172927, “Maturation of the malarial phosphatidylserine decarboxylase is mediated by high affinity binding to anionic phospholipids” (The Journal of Biological Chemistry, 2023).

T1 sequence (B3L2V1 35-354 S308A): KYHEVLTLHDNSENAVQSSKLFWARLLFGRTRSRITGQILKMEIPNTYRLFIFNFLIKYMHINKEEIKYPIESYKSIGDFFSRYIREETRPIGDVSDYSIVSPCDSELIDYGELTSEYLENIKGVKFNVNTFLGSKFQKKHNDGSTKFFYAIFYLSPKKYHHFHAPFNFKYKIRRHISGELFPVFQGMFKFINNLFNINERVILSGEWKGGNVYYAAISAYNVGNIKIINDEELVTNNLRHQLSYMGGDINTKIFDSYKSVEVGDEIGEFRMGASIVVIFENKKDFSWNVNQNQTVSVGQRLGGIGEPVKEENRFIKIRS

One may read the Kd as the equilibrium constant for the complex coming apart. Lower therefore signals a tighter complex. Compound `CCCCCCCC/C=C\CCCCCCCC(=O)OC[C@H](COP(=O)(O)OCC(O)CO)OC(=O)CCCCCCC/C=C\CCCCCCCC` (some centres unmarked) [DOPG] gave a Kd of 0.0664 µM.
The figure for `CCCCCCCC/C=C\CCCCCCCC(=O)OC[C@H](COP(=O)(O)OC[C@H](N)C(=O)O)OC(=O)CCCCCCC/C=C\CCCCCCCC` [DOPS] is 0.0804 µM.
